The text below walks through data of article PMC10461227, “Discovery of AD258 as a Sigma Receptor Ligand with Potent Antiallodynic Activity” (Journal of Medicinal Chemistry, 2023).

“And” between values parts separate entries of the source, which are not always exact repeats. Equal entries are not always repeated. Structures can show the parent of a compound that is named as a salt.

The target in series [1] is T1, S1R (Rattus norvegicus, UniProt Q9R0C9).
T1 construct: liver homogenates from male Sprague Dawley rats; from tissue; host or cells: rat liver homogenate (male Sprague Dawley)
Kind of series: S1R radioligand binding assay ([3H]-(+)-pentazocine, rat liver homogenates). The settings on record: mean ± SD of at least two experiments in duplicate.

A further series deals with T2, S2R (Rattus norvegicus, UniProt Q5U3Y7).
T2 construct: liver homogenates from male Sprague Dawley rats; from tissue; host or cells: rat liver homogenate (male Sprague Dawley)
T2 sequence (Q5U3Y7 1-176): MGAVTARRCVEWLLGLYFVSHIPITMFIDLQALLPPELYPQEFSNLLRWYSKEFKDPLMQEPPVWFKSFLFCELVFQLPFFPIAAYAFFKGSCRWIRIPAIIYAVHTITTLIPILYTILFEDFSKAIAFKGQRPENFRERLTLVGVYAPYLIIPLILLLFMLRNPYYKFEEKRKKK
Kind of series: S2R radioligand binding assay ([3H]DTG with (+)-pentazocine mask, rat liver homogenates).

The subject of series [2] is capsaicin-induced mechanical hypersensitivity (allodynia) in mice. Kind of series: Capsaicin-induced mechanical hypersensitivity (allodynia) in mice. In kind it is in vivo. Particulars: for response latency to mechanical stimulation: 40 mg/kg s.c., non-sensitized 44.19 ± 2.59 s, capsaicin + solvent 13.51 ± 1.93 s, mean ± SEM; for antiallodynic effect on capsaicin-induced allodynia (in words): 30 min before capsaicin; for dose of maximum antiallodynic effect: capsaicin-induced mechanical hypersensitivity. The protocol: We tested the effect of several of our compounds in capsaicin-induced mechanical hypersensitivity (allodynia) in mice (Figure 5). The increase in pain sensitivity in the area surrounding capsaicin injection results from central sensitization, and this process plays a pivotal role in chronic pain development and maintenance.[29]
Experiments were performed in female WT-CD1 mice (Charles River, Barcelona, Spain) weighing 25–30 g. […] The behavioral test was conducted during the light phase (from 9:00 to 15:00 h) and randomly throughout the estrous cycle.
Drug solutions were prepared immediately before the start of the experiments and injected s.c. in a volume of 5 mL/kg into the interscapular area. […] To test for the effects of PRE-084 on the antiallodynia induced by the other drugs, it was administered 5 min before the latter. Capsaicin was dissolved in 1% DMSO in physiological sterile saline to a concentration of 0.05 μg/μL. […] Control animals were injected with the same volume of the vehicle of capsaicin.
Animals were placed for 2 h in individual black-walled test compartments, which were situated on an elevated mesh-bottom platform with a 0.5 cm^2 grid to provide access to the ventral surface of the hind paws. […] Briefly, a nonflexible filament (0.5 mm diameter) was electronically driven into the ventral side of the right hind paw at least 5 mm away from the site of the injection toward the fingers. The intensity of the stimulation was set at 0.5g force.[30] When a paw withdrawal response occurred, the stimulus was automatically terminated, and the response latency was recorded. The filament was applied three times, separated by intervals of 0.5 min. The mean value of the three trials was considered the withdrawal latency time of the animal. A cutoff time of 50 s was used in each trial.

Series [3] relates to human corneal epithelial cells (HCE). Kind of series: LDH cytotoxicity assay in HCE cells. In kind it is cell-based. The settings on record: 100 μM, 20 h incubation. On the procedure:
The permeability of cellular membranes following the exposures was determined by measuring the amount of released LDH (lactate dehydrogenase) enzyme from HCE cells. The commercial CytoTox 96 kit (Promega, Fitchburg, WI, USA) was used according to the manufacturer’s instructions. To measure maximal LDH release, 10 μL of 10× lysis solution was added to control wells 45 min before adding the CytoTox 96 reagent. To measure the amount of released LDH, 50 μL of each well was transferred to a fresh 96-well plate and 50 μL of CytoTox 96 reagent was added followed by a 30 min incubation period. Finally, 50 μL of stop solution was added and absorbance was recorded at 490 nm (Synergy H1 Hybrid Reader, BioTek, Winooski, VT, USA). Absorbance values were corrected by background values, and the percentage of LDH release was calculated using the following formula: 100 × experimental LDH release optical density (OD)/maximum LDH release OD.

For series [4] the test system is unchanged. Kind of series: MTT cell viability assay in HCE cells. The settings on record: 20 h incubation; for HCE cells cell viability reduction (MTT): 100 μM. A general note: Tetrazolium assays rely on reduction of a dye to a coloured formazan, in cell work by metabolically active cells.
A further series has as its system mice. Kind of series: Rotarod test (motor coordination). Type of series: in vivo. Particulars: 9d 1.25 mg/kg s.c., pregabalin 60 mg/kg s.c.; 45-240 min after administration. The protocol:
The rotarod test is the most standard test to assess motor function and coordination in rodents. It consists of a rotating rod where the animal is placed, and the latency to fall is measured. Drugs that negatively affect motor coordination decrease the latency to fall.[2]
Motor coordination was assessed with an accelerating rotarod (Cibertec, Madrid, Spain), as previously described.[34] Briefly, mice were required to walk against the motion of an elevated rotating drum at increasing speed (4–80 rpm over 5 min), and the latency to fall was recorded with a cut-off time of 300 s. Mice were given three training sessions 24 h before drug testing. On the day of the test, rotarod latencies were measured immediately before the drug or vehicle (saline 5% DMSO) was administered (time 0) and several times (45, 90, 150, and 240 min) after the s.c. drug administration. As a comparison drug, we used pregabalin (60 mg/kg, s.c.), which has been reported to impair rotarod performance.[34]
A general note: In the rotarod test animals must keep their balance on a rotating rod.

The nature of the next series: Human plasma stability. The settings on record: pH 7.4, 37 °C, read-out: plasma stability T1/2. Type of series: in vitro ADME.
For series [5], the target named is T3, human serotonin transporter (Homo sapiens, UniProt P31645).
T3 construct: host or cells: HEK-293 cells
Kind of series: SERT binding ([3H]Paroxetine).

The nature of series [6]: Water solubility (UHPLC-PDA). Particulars: free base, ultrapure water, rt. In kind it is physicochemical.
Series [7] has as its target T4, human serotonin 5-HT2A receptor (Homo sapiens, UniProt P28223).
T4 construct: host or cells: CHO-K1 cells
Kind of series: 5-HT2A receptor binding ([3H]Ketanserin).

Series [8] can be described thus: Metabolic stability in mouse liver microsomes. Type of series: in vitro ADME. The protocol: (§1) Moreover, in vitro metabolic studies were performed using mouse and human liver microsomes. Following incubation at 0.1 μM with the liver microsomes for 1 h, reaction samples were analyzed by LC–MS/MS at different time points (0, 15, 30, 45, 60 min).
(§2) In vitro metabolic stability studies were performed by Eurofins Cerep Quality Control Unit (France) using mouse and human liver microsomes fractions in accordance with their validation Standard Operating Procedure.

Series [9] has as its target T1, S1R. Kind of series: S1R functional assay (radioligand binding with/without phenytoin, rat liver).
Series [10] can be described thus: Metabolic stability in human liver microsomes. In kind it is in vitro ADME. The protocol: as §1, §2
Series [11] can be described thus: Chemical stability in phosphate buffer pH 7.4. Particulars: phosphate buffer pH 7.4, 37 °C; read-out: chemical stability T1/2. In kind it is physicochemical.
Another series has as its target hERG (Homo sapiens, UniProt Q12809). Kind of series: hERG activity (Qube APC electrophysiology, CHO-K1 cells expressing human ERG). In kind it is cell-based. Particulars: CHO-K1 cells that express human ERG, six concentrations 10^-10 to 10^-5 M.

T1 sequence (Q9R0C9 whole entry): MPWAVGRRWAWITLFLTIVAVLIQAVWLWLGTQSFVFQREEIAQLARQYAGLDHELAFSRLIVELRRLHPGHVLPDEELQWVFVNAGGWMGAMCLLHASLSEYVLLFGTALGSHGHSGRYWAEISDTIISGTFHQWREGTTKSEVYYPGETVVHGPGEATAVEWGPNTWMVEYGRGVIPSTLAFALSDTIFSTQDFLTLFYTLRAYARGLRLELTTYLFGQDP
T3 sequence (P31645 whole entry): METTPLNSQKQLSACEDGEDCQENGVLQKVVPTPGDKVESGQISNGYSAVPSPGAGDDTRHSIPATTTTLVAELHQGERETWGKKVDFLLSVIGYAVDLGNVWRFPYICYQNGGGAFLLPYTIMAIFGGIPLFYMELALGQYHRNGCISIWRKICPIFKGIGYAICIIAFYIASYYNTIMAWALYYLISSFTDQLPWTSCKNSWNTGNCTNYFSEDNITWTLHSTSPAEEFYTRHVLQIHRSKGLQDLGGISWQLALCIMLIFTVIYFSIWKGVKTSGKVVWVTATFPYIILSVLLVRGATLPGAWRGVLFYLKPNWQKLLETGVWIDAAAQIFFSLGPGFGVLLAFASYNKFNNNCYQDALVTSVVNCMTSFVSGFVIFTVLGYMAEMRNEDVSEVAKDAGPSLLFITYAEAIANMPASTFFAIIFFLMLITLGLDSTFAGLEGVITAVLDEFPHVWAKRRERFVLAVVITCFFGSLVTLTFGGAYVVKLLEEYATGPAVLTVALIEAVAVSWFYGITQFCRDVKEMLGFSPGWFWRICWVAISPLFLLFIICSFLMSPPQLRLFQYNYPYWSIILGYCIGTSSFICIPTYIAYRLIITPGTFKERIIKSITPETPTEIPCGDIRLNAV
T4 sequence (P28223 whole entry): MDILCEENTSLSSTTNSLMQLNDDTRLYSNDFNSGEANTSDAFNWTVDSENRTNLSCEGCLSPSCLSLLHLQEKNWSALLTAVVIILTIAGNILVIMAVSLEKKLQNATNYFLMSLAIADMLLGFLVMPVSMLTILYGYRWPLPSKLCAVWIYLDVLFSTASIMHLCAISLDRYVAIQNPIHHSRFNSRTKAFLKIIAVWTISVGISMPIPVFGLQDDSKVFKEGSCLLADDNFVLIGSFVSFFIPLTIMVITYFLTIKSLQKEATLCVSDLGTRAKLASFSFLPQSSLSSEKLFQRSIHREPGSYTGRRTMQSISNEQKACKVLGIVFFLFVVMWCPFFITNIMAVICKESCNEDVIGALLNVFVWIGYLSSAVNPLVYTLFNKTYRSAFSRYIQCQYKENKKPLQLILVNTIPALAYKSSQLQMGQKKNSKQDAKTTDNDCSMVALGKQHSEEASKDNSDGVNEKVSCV
Chain of hERG (Q12809 whole entry): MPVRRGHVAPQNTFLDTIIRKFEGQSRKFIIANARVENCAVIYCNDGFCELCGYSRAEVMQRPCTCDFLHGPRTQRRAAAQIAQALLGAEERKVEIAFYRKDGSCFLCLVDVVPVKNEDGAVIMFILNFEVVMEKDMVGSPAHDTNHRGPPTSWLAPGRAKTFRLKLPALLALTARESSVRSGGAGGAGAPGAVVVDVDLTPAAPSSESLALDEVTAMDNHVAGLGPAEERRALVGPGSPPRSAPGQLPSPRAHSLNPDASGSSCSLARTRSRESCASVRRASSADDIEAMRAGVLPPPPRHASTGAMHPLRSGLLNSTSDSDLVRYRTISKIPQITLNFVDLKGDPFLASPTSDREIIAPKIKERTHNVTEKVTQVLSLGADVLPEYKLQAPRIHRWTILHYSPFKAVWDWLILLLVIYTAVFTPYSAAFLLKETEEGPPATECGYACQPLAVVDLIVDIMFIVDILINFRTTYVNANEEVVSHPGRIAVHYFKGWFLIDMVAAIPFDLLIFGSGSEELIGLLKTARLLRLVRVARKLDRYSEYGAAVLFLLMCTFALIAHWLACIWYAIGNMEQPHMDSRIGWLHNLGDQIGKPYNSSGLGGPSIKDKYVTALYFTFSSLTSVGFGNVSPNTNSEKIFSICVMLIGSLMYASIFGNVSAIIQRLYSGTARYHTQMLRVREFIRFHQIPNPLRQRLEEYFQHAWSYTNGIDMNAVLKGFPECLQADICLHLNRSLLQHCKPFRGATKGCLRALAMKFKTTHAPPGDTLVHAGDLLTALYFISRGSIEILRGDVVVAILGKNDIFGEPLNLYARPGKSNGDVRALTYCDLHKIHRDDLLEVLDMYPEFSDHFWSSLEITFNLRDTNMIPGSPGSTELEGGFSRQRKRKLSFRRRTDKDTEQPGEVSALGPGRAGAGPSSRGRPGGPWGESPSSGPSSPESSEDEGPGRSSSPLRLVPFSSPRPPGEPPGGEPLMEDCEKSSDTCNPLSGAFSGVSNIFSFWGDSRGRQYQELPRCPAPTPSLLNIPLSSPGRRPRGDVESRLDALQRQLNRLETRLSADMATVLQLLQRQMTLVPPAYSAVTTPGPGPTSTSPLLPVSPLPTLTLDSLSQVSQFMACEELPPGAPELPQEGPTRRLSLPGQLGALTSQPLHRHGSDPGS

Take `CC(C)(C)OC(=O)N1CCC2(CCN(c3ccccc3)C2)C1` (stereo not shown) [6a, tert-Butyl-7-phenyl-2,7-diazaspiro[4.4]nonane-2-carboxylate]: the results for the Ki at S1R [1] and at S2R were 40.7 ± 0.95 nM and 76.1 ± 1.2 nM, respectively.

In the case of `c1ccc(CCN2CCC3(CCN(c4ccccc4)C3)C2)cc1` (stereo not shown) [8a, 2-Phenethyl-7-phenyl-2,7-diazaspiro[4.4]nonane], in [2], the “response latency to mechanical stimulation” value was determined as 30.28 ± 5.02 s. In addition, in series [2] (s.c.), the “antiallodynic effect on capsaicin-induced allodynia (in words)” value (“antiallodynic effect … (in words)” below) is “dose-dependent antiallodynic effects” and the “dose of maximum antiallodynic effect” value was 20 mg/kg. In addition, the “HCE cells cytotoxicity (LDH release)” value in series [3] worked out at 16%. In addition, the “HCE cells cell viability reduction (MTT)” value in [4] was found to be 50%.

With `O=[N+]([O-])c1ccc(N2CCC3(CCN(CCc4ccccc4)C3)C2)cc1` (stereo not shown) [9a, 2-(4-Nitrophenyl)-7-phenethyl-2,7-diazaspiro[4.4]nonane], in series [2] (s.c.), the “dose from which significant antiallodynic effects are seen” value is given as 5 mg/kg; the “antiallodynic effect … (in words)” value is “dose-dependent and full reversal of capsaicin-induced allodynia”; the “dose of maximum antiallodynic effect” value is 10 mg/kg. Also, the “HCE cells cytotoxicity (LDH release)” value in [3] amounted to 23%.

As for `N#Cc1ccc(N2CCC3(CCN(CCc4ccccc4)C3)C2)cc1` (stereo not shown) [9d, 4-(7-Phenethyl-2,7-diazaspiro[4.4]nonan-2-yl)benzonitrile], the “effect of PRE-084 on the antiallodynic effect of the compound” value in series [2] (PRE-084 32 mg/kg s.c. given 5 min before the compound at its dose of maximum effect) was “fully reversed”. For the same compound, the “antiallodynic effect … (in words)” value in series [2] (s.c.) is “dose-dependent and full reversal of capsaicin-induced allodynia”. The “latency to fall from the rotarod (in words)” value in the series on mice was “no change in the latency to fall”. The half-life (in the series “Human plasma stability”; in [11]) was more than 24 h in each case. Moreover, the “HCE cells cytotoxicity (LDH release)” value in [3] is 18%. The inhibition at 1 µM in series [5] and in [7] was less than 50% each time. In series [5] (at 1 μM), this compound yielded an SERT % inhibition of 39%. In addition, the solubility at 24 h in [6] was 710 µg/mL and 2140 µM. In [7] (at 1 μM), this compound registered a 5-HT2A % inhibition of 42%. The microsomal CLint at 1 h, 0.1 µM in series [8] (1 h incubation) was determined as 124 µL/min/mg; in [10] (1 h incubation), 127 µL/min/mg. Further, the half-life at 1 h, 0.1 µM in series [8] (1 h incubation, read-out: mouse liver microsomes T1/2) was determined as 0.933 h; in series [10] (1 h incubation, read-out: human liver microsomes T1/2), 0.917 h. The half-life at 0.1 μM in [8] (read-out: mouse liver microsomes metabolic half-time (T1/2) (converted)) and in series [10] (read-out: human liver microsomes metabolic half-time (T1/2) (converted)) was approximately 1 h each time. Also, the S1R functional profile result on S1R [9] was “antagonist”. The “HCE cells cell viability reduction (MTT)” value in series [4] came out at 28%. Besides, the IC50 against hERG turned out to be 85 nM.

Regarding `c1ccc(CCN2CCC3(CCN(CCc4ccccc4)C3)C2)cc1` [14a, 2,7-Diphenethyl-2,7-diazaspiro[4.4]nonane], in series [2], the “response latency to mechanical stimulation” value is given as 26.55 ± 3.55 s. In [2] (s.c.), the “antiallodynic effect … (in words)” value is reported as “dose-dependent antiallodynic effects” and the “dose of maximum antiallodynic effect” value was 20 mg/kg. Moreover, in [3], the “HCE cells cytotoxicity (LDH release)” value is listed as 13%. Also, in [4], the “HCE cells cell viability reduction (MTT)” value is listed as 56%.

Consider `O=C(Cc1ccc(Cl)c(Cl)c1)N1CCC2(CCN(CCc3ccccc3)C2)C1` (stereo not shown) [15a, 2-(3,4-Dichlorophenyl)-1-(7-phenethyl-2,7-diazaspiro[4.4]nonan-2-yl)ethan-1-one], for which, in series [2] (s.c.), the “antiallodynic effect … (in words)” value is “dose-dependent and full antiallodynic effect”; the “dose of maximum antiallodynic effect” value was 40 mg/kg. For the same compound, the Ki on S1R [1] came out at 7.5 ± 1 nM.

Consider `CN1CCN(CCc2ccc(Cl)c(Cl)c2)CC1` [BD1063, 1-[2-(3,4-dichlorophenyl)ethyl]-4-methylpiperazine dihydrochloride, reference compound], for which the Ki at S1R [1] amounted to 14 ± 2.7 nM.

As for `Cl.O=C(OCCN1CCOCC1)C1(c2ccccc2)CCCCC1` [PRE-084, reference compound], the “HCE cells cell viability reduction (MTT)” value in series [4] is recorded as 58%. Moreover, the “concentration above which cell viability is statistically significantly reduced (MTT)” value in [4] (HCE cells) is reported as “above 20 μM”.

`CC(C)C[C@H](CN)CC(=O)O` [pregabalin, reference compound]: in the series on mice, the “latency to fall from the rotarod (in words)” value is listed as “markedly reduced rotarod latencies”.

As usually defined, the Ki is the dissociation constant of the complex between target and ligand, obtained from inhibition or displacement. A high value points to a looser hold on the target. For orientation: inhibition means the drop in the measured response relative to a control, in per cent. In general, solubility refers to the concentration that dissolves in the medium under given conditions. A higher solubility goes with much dissolved substance. For orientation: microsomal CLint means a measure of how fast metabolising enzymes remove a compound, apart from limits set by blood flow. High values mean faster metabolism, low ones greater metabolic stability. For orientation: IC50 means the concentration at which inhibition is half-maximal. A lower IC50 goes with greater potency.
